Measurements as given in US9340819B2, “Method for detecting the presence of carbapenemase-producing bacteria in a sample” (priority 2011, dated 2016).
In brackets after ≈: the same amount, converted by molar mass.

Assays:
E. coli [1] = assay: MIC by Etest on Mueller-Hinton agar (Example 1); type: cell-based, Escherichia coli; conditions: for MIC: Escherichia coli
Description: (§1) Prior to performing the method of the invention, susceptibility testings were performed by determining Minimum Inhibitory Concentration (MIC) values by the Etest® (AB bioMérieux; Solna, Sweden) on Mueller-Hinton agar plates at 37° C. and results of susceptibility testing were recorded according to the Clinical and Laboratory Standards Institute (CLSI) guidelines as modified in June 2010 (18). The breakpoints for imipenem are S≦1 μg/ml (susceptibility) and R≧4 μg/ml (resistant). As for those for ertapenem, they are S≦0.25 μg/ml and R≧1 μg/ml (see Tables 1 and 2).

C. freundii [2] = assay: MIC by Etest on Mueller-Hinton agar (Example 1); type: cell-based; conditions: Citrobacter freundii; C. freundii STE (13); NDM-1 + OXA-1 + OXA-9 + OXA-10 + CTX-M-15 + TEM-1
Description: as §1

E. cloacae [3] = assay: MIC by Etest on Mueller-Hinton agar (Example 1); type: cell-based; conditions: Enterobacter cloacae
Description: as §1

K. pneumoniae = assay: MIC by Etest on Mueller-Hinton agar (Example 1); type: cell-based; conditions: Klebsiella pneumoniae
Description: as §1

P. mirabilis [4] = assay: MIC by Etest on Mueller-Hinton agar (Example 1); type: cell-based; conditions: Proteus mirabilis, plasmid mediated cephalosporinase ACC-1
Description: as §1

P. stuartii [5] = assay: MIC by Etest on Mueller-Hinton agar (Example 1); type: cell-based; conditions: Providencia stuartii, NDM-1 + OXA-1 + CMY-6
Description: as §1

P. rettgeri [6] = assay: MIC by Etest on Mueller-Hinton agar (Example 1); type: cell-based, Proteus rettgeri; conditions: Providencia rettgeri; P. rettgeri RAP (9); OXA-181 + OXA-1
Description: as §1

E. coli [7] = assay: MIC of carbapenem by Etest (Example 2); type: cell-based, Escherichia coli
Description: (§2) All strains had previously been characterized for their β-lactamase content at the molecular level. Minimum inhibitory concentration of carbapenem were determined using the Etest® (AB bioMérieux, Solna, Sweden) and results were recorded according to US guidelines (CLSI), as updated in 2011.

E. cloacae [8] = assay: MIC of carbapenem by Etest (Example 2); type: cell-based, Enterobacter cloacae
Description: as §2

E. aerogenes = assay: MIC of carbapenem by Etest (Example 2); type: cell-based, Enterobacter aerogenes
Description: as §2

C. freundii [9] = assay: MIC of carbapenem by Etest (Example 2); type: cell-based, Citrobacter freundii
Description: as §2

S. marcescens = assay: MIC of carbapenem by Etest (Example 2); type: cell-based, Serratia marcescens
Description: as §2

E. asburiae = assay: MIC of carbapenem by Etest (Example 2); type: cell-based, Enterobacter asburiae; conditions: E. asburiae IMI-2, n=1
Description: as §2

P. stuartii [10] = assay: MIC of carbapenem by Etest (Example 2); type: cell-based, Providencia stuartii; conditions: P. stuartii NDM-1, n=1
Description: as §2

P. rettgeri [11] = assay: MIC of carbapenem by Etest (Example 2); type: cell-based, Proteus rettgeri
Description: as §2

P. mirabilis [12] = assay: MIC of carbapenem by Etest (Example 2); type: cell-based, Proteus mirabilis; conditions: Plasmid mediated AmpC or chromosomal AmpC + decreased membrane permeability; P. mirabilis ACC-1, n=1
Description: as §2

M. morganii = assay: MIC of carbapenem by Etest (Example 2); type: cell-based, Morganella morganii; conditions: Plasmid mediated AmpC or chromosomal AmpC + decreased membrane permeability; M. morganii Overexpressed cephalosporinase, n=2
Description: as §2

## C[C@@H](O)[C@H]1C(=O)N2C(C(=O)O)=C(S[C@@H]3CN[C@H](C(=O)Nc4cccc(C(=O)O)c4)C3)[C@H](C)[C@H]12 [ERT, ertapenem]
E. coli [1]; E. coli Ec13 SYD (23), plasmid mediated cephalosporinase CMY-2
  MICs: 0.06 µg/mL
E. coli [1]; E. coli J53 (29), wild-type
  MICs: 0.06 µg/mL
E. coli [1]; E. coli VMC (24), plasmid mediated cephalosporinase CMY-10
  MICs: 0.06 µg/mL
E. coli [1]; E. coli 271 AUS (12), NDM-1 + CTX-M-15 + TEM-1
  MIC: 8 µg/mL
E. coli [1]; E. coli 5649 GEN, NDM-1 + OXA-1 + CMY-30 + TEM-1
  MIC: 32 µg/mL
E. coli [1]; E. coli (18), ESBL CTX-M-14
  MIC: 0.06 µg/mL (≈ 0.126 µM)
E. coli [1]; E. coli (20), ESBL VEB-1
  MIC: 0.06 µg/mL (≈ 0.126 µM)
E. coli [1]; E. coli ALL, NDM-1 + OXA-1 + OXA-2 + CTX-M-15 + TEM-1
  MIC: 8 µg/mL
E. coli [1]; E. coli BOU, OXA-48 + CTX-M-15
  MIC: 1.5 µg/mL
E. coli [1]; E. coli COL (2), KPC-2
  MIC: 0.5 µg/mL (≈ 1.05 µM)
E. coli [1]; E. coli DIH, VIM-19
  MIC: 2 µg/mL (≈ 4.21 µM)
E. coli [1]; E. coli DIN, KPC
  MIC: > 32 µg/mL
E. coli [1]; E. coli FOR, ESBL CTX-M-15
  MIC: 0.06 µg/mL (≈ 0.126 µM)
E. coli [1]; E. coli HAN (7), OXA-48
  MIC: 1.5 µg/mL (≈ 3.15 µM)
E. coli [1]; E. coli MAD (14), VIM-1 + CTX-M-3
  MIC: 0.5 µg/mL
E. coli [1]; E. coli MAD, IMP-1
  MIC: 3 µg/mL (≈ 6.31 µM)
E. coli [1]; E. coli PSP, KPC-2
  MIC: 2 µg/mL (≈ 4.21 µM)
E. coli [1]; E. coli RIC, NDM-1 + OXA-1 + OXA-10 + CMY-16
  MIC: 8 µg/mL
C. freundii [2]
  MIC: > 32 µg/mL
E. cloacae [3]; E. cloacae 2185, ESBL OXA-163
  MIC: 0.19 µg/mL (≈ 0.4 µM)
E. cloacae [3]; E. cloacae (1), KPC-2
  MIC: 6 µg/mL (≈ 12.6 µM)
E. cloacae [3]; E. cloacae (17), ESBL CTX-M-15
  MIC: 0.19 µg/mL (≈ 0.4 µM)
E. cloacae [3]; E. cloacae ARF (25), overexpression of chromosomal cephalosporinase AmpC
  MIC: 0.5 µg/mL (≈ 1.05 µM)
E. cloacae [3]; E. cloacae BLA, overexpression of chromosomal cephalosporinase AmpC
  MIC: 0.5 µg/mL (≈ 1.05 µM)
E. cloacae [3]; E. cloacae CON (26), overexpression of chromosomal cephalosporinase AmpC
  MIC: 0.75 µg/mL (≈ 1.58 µM)
E. cloacae [3]; E. cloacae IR38, NDM-1 + CTX-M-15
  MIC: > 32 µg/mL
E. cloacae [3]; E. cloacae TUR (6), OXA-48 + SHV-5
  MIC: 1 µg/mL
E. cloacae [3]; E. cloacae, ESBL VEB-1
  MIC: 0.19 µg/mL (≈ 0.4 µM)
K. pneumoniae; CIP53153, K. pneumoniae CIP53153 (30), wild-type
  MIC: 0.19 µg/mL (≈ 0.4 µM)
K. pneumoniae; K. pneumoniae 1 OMA (11), NDM-1 + CTX-M-15 + OXA-1 + OXA-9
  MIC: > 32 µg/mL
K. pneumoniae; K. pneumoniae 2 OMA, NDM-1 + OXA-1
  MIC: > 32 µg/mL
K. pneumoniae; K. pneumoniae 7 AFR, NDM-1 + OXA-1 + CTX-M-15 + CMY-6 + TEM-1
  MIC: > 32 µg/mL
K. pneumoniae; K. pneumoniae 6299 (19), ESBL OXA-163
  MIC: 0.19 µg/mL (≈ 0.4 µM)
K. pneumoniae; K. pneumoniae 6759 GEN, NDM-1 + CTX-M-15 + OXA-1 + OXA-9 + OXA-10 + CMY16
  MIC: 32 µg/mL
K. pneumoniae; K. pneumoniae (16), ESBL CTX-M-15
  MIC: 0.19 µg/mL (≈ 0.4 µM)
K. pneumoniae; K. pneumoniae BEL, OXA-48
  MIC: 4 µg/mL (≈ 8.41 µM)
K. pneumoniae; K. pneumoniae BER (28), porin deficiency associated with ESBL, TEM
  MIC: 0.75 µg/mL (≈ 1.58 µM)
K. pneumoniae; K. pneumoniae BIC (4), OXA-48
  MIC: 2 µg/mL (≈ 4.21 µM)
K. pneumoniae; K. pneumoniae CHA (5), OXA-48 + TEM-1
  MIC: 1 µg/mL
K. pneumoniae; K. pneumoniae COO (27), porin deficiency associated with ESBL, CTX-M-15 + SHV-28
  MIC: 0.75 µg/mL
K. pneumoniae; K. pneumoniae DIN, NDM-1
  MIC: 32 µg/mL (≈ 67.3 µM)
K. pneumoniae; K. pneumoniae EGY, OXA-48 + CTX-M-15
  MIC: 3 µg/mL
K. pneumoniae; K. pneumoniae H1516-6 COL (3), KPC-2 + TEM-1 + CTXM-15
  MIC: 3 µg/mL
K. pneumoniae; K. pneumoniae HOL, OXA-181 + CTX-M-15
  MIC: 1 µg/mL
K. pneumoniae; K. pneumoniae IND, NDM-1 + OXA-1 + CTX-M-15
  MIC: 8 µg/mL
K. pneumoniae; K. pneumoniae MAD (15), IMP-13
  MIC: 2 µg/mL (≈ 4.21 µM)
K. pneumoniae; K. pneumoniae MAD, VIM-1 + CTX-M-3
  MIC: > 32 µg/mL
K. pneumoniae; K. pneumoniae OMA (8), OXA-181 + CTXM-15 + OXA-1
  MIC: 2 µg/mL
K. pneumoniae; K. pneumoniae RAM, OXA-48
  MIC: 2 µg/mL (≈ 4.21 µM)
K. pneumoniae; K. pneumoniae SAB, NDM-1
  MIC: 8 µg/mL (≈ 16.8 µM)
K. pneumoniae; K. pneumoniae UK (10), NDM-1 + CTX-M-15 + CMY-4 + OXA-1
  MIC: 32 µg/mL
P. mirabilis [4]
  MIC: 0.19 µg/mL (≈ 0.4 µM)
P. stuartii [5]
  MIC: > 32 µg/mL
P. rettgeri [6]
  MIC: 2 µg/mL
E. coli [7]; E. coli IMP-1, n=2
  MICs range: 3 to 4 mg/L
E. coli [7]; E. coli IMP-8, n=1
  MICs range: 8 mg/L
E. coli [7]; E. coli OXA-48, n=6
  MICs range: 0.5 to 16 mg/L
E. coli [7]; E. coli VIM-1, n=2
  MICs range: 0.38 to 1.5 mg/L
E. coli [7]; E. coli VIM-2, n=2
  MICs range: 0.5 to 1.5 mg/L
E. coli [7]; E. coli VIM-19, n=1
  MICs range: 16 mg/L
E. coli [7]; ESBLs, E. coli CTX-M-1, n=1
  MICs range: 0.12 mg/L
E. coli [7]; ESBLs, E. coli CTX-M-3, n=1
  MICs range: 0.12 mg/L
E. coli [7]; ESBLs, E. coli CTX-M-14, n=2
  MICs range: 0.12 mg/L
E. coli [7]; ESBLs, E. coli CTX-M-15, n=2
  MICs range: 0.12 mg/L
E. coli [7]; ESBLs, E. coli VEB-1, n=1
  MICs range: 0.12 mg/L
E. coli [7]; Plasmid mediated AmpC or chromosomal AmpC + decreased membrane permeability, E. coli ACC-1, n=1
  MICs range: 0.12 mg/L
E. coli [7]; Plasmid mediated AmpC or chromosomal AmpC + decreased membrane permeability, E. coli CMY-2, n=1
  MICs range: 0.12 mg/L
E. coli [7]; Plasmid mediated AmpC or chromosomal AmpC + decreased membrane permeability, E. coli CMY-10, n=1
  MICs range: 0.38 mg/L
E. coli [7]; Plasmid mediated AmpC or chromosomal AmpC + decreased membrane permeability, E. coli DHA-1, n=1
  MICs range: 0.12 mg/L
E. coli [7]; Plasmid mediated AmpC or chromosomal AmpC + decreased membrane permeability, E. coli Extended spectrum cephalosporinase, n=1
  MICs range: 0.12 mg/L
E. coli [7]; Plasmid mediated AmpC or chromosomal AmpC + decreased membrane permeability, E. coli Overexpressed cephalosporinase, n=1
  MICs range: >32 mg/L
E. cloacae [8]; E. cloacae GES-5, n=1
  MICs range: >32 mg/L
E. cloacae [8]; E. cloacae IMP-1, n=12
  MICs range: >32 mg/L
E. cloacae [8]; E. cloacae IMP-8, n=2
  MICs range: 0.5 to 1^ mg/L
E. cloacae [8]; E. cloacae KPC-2, n=7
  MICs range: 1.5 to 32 mg/L
E. cloacae [8]; E. cloacae NDM-1, n=1
  MICs range: 16 mg/L
E. cloacae [8]; E. cloacae NMC-A, n=1
  MICs range: >32 mg/L
E. cloacae [8]; E. cloacae OXA-48, n=3
  MICs range: 0.5 to 16 mg/L
E. cloacae [8]; ESBLs, E. cloacae CTX-M-15, n=3
  MICs range: 0.12 mg/L
E. cloacae [8]; ESBLs, E. cloacae VEB-1, n=1
  MICs range: 0.12 mg/L
E. aerogenes; E. aerogenes KPC-2, n=1
  MICs range: >32 mg/L
E. aerogenes; Plasmid mediated AmpC or chromosomal AmpC + decreased membrane permeability, E. aerogenes Overexpressed cephalosporinase, n=1
  MICs range: 4 mg/L
C. freundii [9]; C. freundii NDM-1, n=1
  MICs range: >32 mg/L
C. freundii [9]; ESBL + decreased membrane permeability, C. freundii TEM-3, n=1
  MICs range: 8 mg/L
S. marcescens; S. marcescens IMP-1, n=2
  MICs range: >32 mg/L
S. marcescens; S. marcescens IMP-11, n=1
  MICs range: >32 mg/L
S. marcescens; S. marcescens KPC-2, n=2
  MICs range: >32 mg/L
S. marcescens; S. marcescens SME-1, n=1
  MICs range: 4 mg/L
S. marcescens; S. marcescens SME-2, n=1
  MICs range: 4 mg/L
S. marcescens; S. marcescens VIM-2, n=1
  MICs range: >32 mg/L
E. asburiae
  MICs range: >32 mg/L
P. stuartii [10]
  MICs range: 0.38 mg/L
P. rettgeri [11]; P. rettgeri NDM-1, n=1
  MICs range: 0.5 mg/L
P. rettgeri [11]; P. rettgeri OXA-181, n=1
  MICs range: 1 mg/L
P. mirabilis [12]
  MICs range: 0.12 mg/L
M. morganii
  MICs range: 0.12 mg/L
